This is an account of results in publication PMC11204543, “Halenaquinol Blocks Staphylococcal Protein A Anchoring on Cell Wall Surface by Inhibiting Sortase A in Staphylococcus aureus” (Marine Drugs, 2024).

The assay concerns srtA and spa mRNA expression in S. aureus Newman. Kind of assay: Semiquantitative reverse transcription PCR of srtA and spa mRNA. In kind it is cell-based, Staphylococcus aureus. An excerpt:
To ascertain whether halenaquinol inhibits the transcription of srtA or blocks its function at an enzyme level without affecting the expression of the srtA gene, the mRNA expression level of srtA in response to various concentrations and exposure times of halenaquinol was initially explored using semi-quantitative reverse transcription PCR (RT-PCR). Total RNA isolated from S. aureus Newman was transcribed into cDNA, and it was used as a template to amplify the target genes. A time-course analysis assessed the impact of halenaquinol on srtA expression at different intervals from 0 to 60 min. […] Furthermore, the expression level of srtA was analyzed after 40 min of incubation at various concentrations of halenaquinol.
Figure 3 Effect of SrtA inhibitors on srtA and spa mRNA expression. S. aureus Newman cells were incubated in the presence of halenaquinol and quercetin. mRNA expression levels of cells were examined using semiquantitative RT-PCR. (A) The time courses of mRNA expression of gyrB and srtA were monitored. Total RNA was isolated from cells grown in medium containing 0.2% dimethyl sulfoxide (DMSO, negative control), halenaquinol or quercetin (positive control). (B) Cells were grown in medium containing the indicated concentrations of halenaquinol or quercetin. The gyrB gene was used as a loading control.
The S. aureus Newman strain was inoculated into 5 mL of trypticase soy broth (TSB) and incubated overnight at 37 °C with shaking. Cultures were diluted 1:100 into TSB and grown until the OD600 reached approximately 0.3. Cultures (5 mL) were aliquoted, and the test compound was added with less than 0.2% DMSO. The negative control group was treated with DMSO only. Cultures were then incubated at 37 °C with shaking and harvested at specific incubation times. Then, 1 mL of each culture was centrifuged, and the pellet was stored at −80 °C. RNA was isolated using the easy-BLUE total RNA extraction kit (iNtRON Biotechnology, Boston, MA, USA). […]

Turning to `C[C@@]12CCC(=O)c3coc(c31)C(=O)c1cc3c(O)ccc(O)c3cc12` [Compound 2, halenaquinol], the “inhibition of the transcription of srtA and spA” value (S. aureus Newman, semi-quantitative RT-PCR) is given as “does not inhibit”. Further, the “PCR band intensity representing mRNA expression of srtA and spa” value (after 40 min of incubation, increasing concentrations) is “slightly increased”. For the setting “time course 0 to 60 min, gyrB consistent”, the “PCR band intensity representing srtA mRNA expression” value is listed as “increased over time”.
